Patent US8389484B2, “Methods for targeting RNA molecules” (priority 1999, dated 2013)
In the oligonucleotide strings, read from the 5' end, every base follows the letter of its sugar. An asterisk marks phosphorothioate; unmarked linkages are phosphodiester. Other units and linkages are bracketed, terminal groups are in braces. A string of capitals states the bases alone. d = 2'-deoxy (DNA)

Key:
[1] = test system: 1674U- and 1674C-alleles of RPA70 mRNA; test: Cell transfection assay (J. P. Basilion, unpublished results); format: cell-based, human; conditions: previously shown
[2] = test system: 1674U-allele of endogenous RPA70 mRNA; test: Oligonucleotide-directed cleavage of endogenous RPA70 mRNA in HeLa cell extracts (Northern blot); format: biochemical, human; conditions: for cleavage of matched allele versus singly mismatched allele: HeLa (1674U) versus Calu-1 (1674C) extracts
Method: (§1) FIG. 4. Northern blot analysis of oligonucleotide-directed cleavage of endogenous RPA70 mRNA in human cell extracts. The extracts were prepared from HeLa and Calu-1 cells that express only the 1674U- or the 1674 C-allele of the RPA70 mRNA, respectively. In addition to PS-oligos 1, 2, 3, and 6 as described in FIG. 3, oligo 7 (5′ […] 3′; SEQ ID NO:1) was used in the assay as a non-allele-specific control oligo that targets nucleotides 2230-2249 of the 3′-UTR of RPA70 mRNA. a, Targeting the 1674U/C polymorphic site by oligos 1 and 2. b, Targeting the site of different allelic structures around nucleotide 1656 by oligos 3 and 6. Reactions were done in duplicates. The averaged data points of the duplicates are plotted with standard deviations as error bars, and are shown below the corresponding Northern blots. Intact RPA70 mRNA levels were normalized to GAPDH levels and expressed as a percentage of no-oligo control for each experiment.
Oligonucleotide-directed Cleavage of Endogenous RPA70 mRNA in Human Cell Extracts. Human tumor cell lines HeLa and Calu-1 (American Type Culture collection) were genotyped for SNPs in RPA70 cDNA by RFLP analysis and by sequencing. […] HeLa cells were cultured in monolayers in minimum essential medium (Gibco BRL), and Calu-1 cells were cultured in monolayers in McCoy's 5A medium (Sigma). Both media were supplemented with 10% heat inactivated fetal bovine serum (JRH Biosciences), 100 units/mL penicillin-100 μg/mL streptomycin (Gibco BRL), and 2 mM L-glutamine (Gibco BRL). Both cell lines were grown under 5% CO2/95% air in a humidified incubator at 37° C. For preparation of cell extracts, the cells were grown to 80-90% confluence, typsinized, and washed twice with the complete medium as specified above and twice with phosphate buffered saline (Gibco BRL). Approximately 5×10^7 Cells were lysed in a 15 mL tissue grinder with a Teflon pestle (Wheaton) in the presence of 1.5 mL lysis buffer (20 mM Tris.HCl, pH 7.5, 420 mM NaCl, 2 mM MgCl2, 0.2 mM EDTA, 1 mM DTT, 0.5 mM phenylmethyl sulfonylfluoride (PMSF), and 25% glycerol). The sodium salt concentration was chosen to facilitate the disruption of the nuclear membrane to release RNase H from nuclei (21). Up to 200 strokes were needed to completely lyse the cells, as checked using a hemacytometer. The cell lysate was centrifuged at 14,000, rpm for 10 min at 4° C., and cell extracts were obtained by transferring supernatant to clean microcentrifuge tubes and freezing immediately at −80° C. Total protein concentration of cell extracts was determined using the Bradford assay (Bio-Rad). For oligodeoxynucleotide-directed cleavage of endogenous mRNA reactions, cell extracts were diluted to a total protein concentration of 3 mg/mL with the lysis buffer. After the addition of a 10× PS-oligo solution to the diluted cell extracts, the reaction mixture was incubated for 40 min at 37° C. The level of intact RPA70 mRNA was determined by total RNA isolation and Northern blot hybridization using procedures described previously (22, 23), and followed by phosphoimager analysis. Northern probes specific for RPA70 mRNA were synthesized by random primed [α-^32P]dCTP-labeling of a cDNA probe corresponding to nucleotides 1519-2080 of human RPA70 mRNA. To account for variability in the amount of total RNA loaded into individual gel wells for Northern analysis, the level of glyceraldehyde 3-phosphate dehydrogenase (GAPDH) mRNA was also measured by first stripping the RPA70 mRNA probe, and then reprobing the same Northern blot with a random primed [α-^32P]dCTP-labeled cDNA probe corresponding to a 600 nucleotide sequence of human GAPDH (Stratagene).
Allele-specific Cleavage of Endogenous RPA70 mRNA in Human Cell Extracts. We next performed oligo-directed cleavage of the full-length, endogenous RPA70 mRNA in whole cell extracts prepared from two genotyped human cell lines, HeLa (1674U) and Calu-1 (1674C). […]

[3] = test system: U- and C-alleles of the 544-mer fragment of the RPA70-1674U/C mRNA; test: E. coli RNase H digestion assay, oligo-directed cleavage in a purified system; format: biochemical, human; conditions: for cleavage efficiency, matched allele versus mismatched allele: 544-mer RPA70 mRNA fragments, oligos target the SNP at position 1674; for reduction in the cleavage of both alleles as compared to parent oligo 3: 544-mer U- and C-alleles, E. coli RNase H; for enhancement in allele discrimination versus parent oligo 3: hairpin oligos, under the experimental conditions
Source text: FIG. 3. E. coli RNase H digestion of both alleles of the 544-mer fragment of the RPA70-1674U/C mRNA. a, Nucleotide sequence of the PS-oligos used in the assay. Oligos 1 and 2 (SEQ ID NOs:6 and 7, respectively) target the polymorphic site; the bases opposing the polymorphism in the mRNA are shown in boldface. Oligos 3 and 6 (SEQ ID NOs:8 and 11, respectively) target the site of different allelic structures around nucleotide 1656. The terminal residues of oligos 1, 2, 3, and 6 (SEQ ID NOs:6, 7, 8, and 11, respectively) are labeled according to the positions of the complementary nucleotides in RPA70 mRNA. Oligos 4 and 5 (SEQ ID NOs:9 and 10, respectively) share the same target hybridization sequence as 3 (SEQ ID NO:8), but with additional nucleotides (shown underlined) added to facilitate folding into hairpin structures for intended enhancement in allele discrimination. b, E. coli RNase H digestion patterns of the 5′-^32P-labeled U- and C-alleles hybridized to the oligos in a. Cleavage sites were confirmed by running on the same gel RNase T1 digestion ladders for the two alleles (not shown): they are centered at position 1674 for oligos 1 and 2 (SEQ ID NOs:6 and 7), 1650 for oligos 3-5 (SEQ ID NOs:8-10), and 1654 for oligo 6 (SEQ ID NO:11). c, Comparison of percent cleavages of the U- and C-alleles calculated from b. Oligo-dependent-cleavage bands were integrated as a percentage of total RNA in each lane with the overlapping background-cleavage bands subtracted. Variations in sample loading to each lane were internally corrected by measuring percent cleavage instead of absolute band intensity.
E. coli RNase H Digestion Assay. Phosphorothioate oligodeoxyribonucleotides (PS-oligos) were employed in our studies because of their enhanced stability against nucleases (20). PS-oligos were chemically synthesized and desalted on C-18 cartridges by Synthetic Genetics. One, pmol of 5′-^32P-labeled mRNA was renatured in 12 μL RNase H buffer (20 mM Tris.HCl, pH 7.5, 10 mM KCl, 5 mM MgCl2, 0.1 mM dithiothreitol (DTT), 5% glycerol, and 10 μg phenol-extracted glycogen) by heating for 1 min at 85° C., then cooling for 5 min at room temperature followed by 10 min at 37° C. E. coli RNase H (0.6 units, Pharmacia) was then added to the renatured mRNA and incubated for 5 min at 37° C. PS-oligos (5 pmol in RNase H buffer) were subsequently added, and the reaction mixture (15 μL total) incubated for 20 min at 37° C. The digestion products were fractionated on a 4% denaturing polyacrylamide gel, and the cleavage patterns visualized by autoradiography. RNA levels were quantified using a phosphoimager (Fujifilm Model FLA-2000).
Allele-specific Cleavage of RPA70 mRNA in a Purified System. We first used an in vitro assay with E. coli RNase H and the in vitro transcribed 544-mer RPA70 mRNA fragments to examine the efficiency and allele specificity of structure-based targeting as compared to directly targeting the 1674U/C polymorphism. […] SNP-targeting oligos 1 and 2 were previously optimized for allele discrimination in a cell transfection assay (J. P. Basilion, unpublished results). Each of the SNP-targeting oligos is perfectly matched only with one of the two alleles; it is singly mismatched with the other allele. Single base mismatches formed between the SNP-targeting oligos and their respective non-targeting alleles contribute to the allele discrimination observed previously. Structure-targeting oligos 3 and 6 match perfectly with both alleles, and were designed to hybridize maximally with the single-stranded 1656 region of the U-allele, while avoiding the 1664 region which is slightly accessible in both alleles (FIG. 1b). Four and six additional nucleotides were added to the 5′-end of oligo 3 to produce oligos 4 and 5, respectively, to facilitate folding into hairpin structures for enhanced allele discrimination (27).

[4] = test system: 1674C-allele of endogenous RPA70 mRNA; test: Oligonucleotide-directed cleavage of endogenous RPA70 mRNA in Calu-1 cell extracts (Northern blot); format: biochemical, human; conditions: 300 nM oligo, Calu-1 (1674C) extracts
Method: as §1
Oligonucleotide-directed Cleavage of Endogenous RPA70 mRNA in Human Cell Extracts. […] Total protein concentration of cell extracts was determined using the Bradford assay (Bio-Rad). […] The level of intact RPA70 mRNA was determined by total RNA isolation and Northern blot hybridization using procedures described previously (22, 23), and followed by phosphoimager analysis. […]

5′ TGGTCTGCAGTTAGGGTCAG 3′ (phosphorothioate backbone, further chemistry not given here) [Oligo 7]
targeting efficiency on the 1674U- and 1674C-alleles [1]: equally high efficiency | response of the two cell types to the control oligo ([2]; HeLa versus Calu-1 extracts, 100 to 600 nM): responded similarly

Oligo 1: Phosphorothioate oligodeoxyribonucleotide 20-mer (SEQ ID NO:6) targeting the RPA70 1674U/C polymorphic site, U-allele specific (dT*dA*dG*dC*dT*dT*dC*dA*dG*dC*dA*dG*dA*dC*dT*dC*dC*dT*dG*dG)
cleavage efficiency, matched allele versus mismatched allele [3]: greater for their respective matched alleles than for the mismatched alleles | extent of cleavage of the matched allele (U-allele) ([2]; 300 nM oligo, HeLa (1674U) extracts): the majority of the matched allele remained uncleaved | cleavage of matched allele versus singly mismatched allele ([2]; 300 nM oligo): equally or slightly more cleaved than the singly mismatched allele

Oligo 2: Phosphorothioate oligodeoxyribonucleotide 18-mer (SEQ ID NO:7) targeting the RPA70 1674U/C polymorphic site, C-allele specific (dG*dC*dT*dT*dC*dA*dG*dC*dG*dG*dA*dC*dT*dC*dC*dT*dG*dG)
cleavage efficiency, matched allele versus mismatched allele [3]: greater for their respective matched alleles than for the mismatched alleles | cleavage of matched allele versus singly mismatched allele ([2]; 300 nM oligo): equally or slightly more cleaved than the singly mismatched allele | extent of cleavage of the matched allele (C-allele) [4]: the majority of the matched allele remained uncleaved

Oligo 3: Phosphorothioate oligodeoxyribonucleotide 20-mer (SEQ ID NO:8) targeting the site of different allelic structures around nucleotide 1656 of RPA70 mRNA (dC*dA*dA*dG*dT*dC*dA*dC*dC*dC*dA*dC*dT*dG*dA*dT*dT*dC*dT*dC)
U-allele remaining uncleaved ([2]; 300 nM oligo, HeLa (1674U) extracts, intact mRNA normalized to GAPDH, % of no-oligo control): 15% | allele discrimination relative to that obtained by directly targeting the polymorphism with 20-mer 1 ([2]; HeLa versus Calu-1 extracts, percentage of intact mRNA evaluated, 100, 300 and 600 nM): two- to sixfold | non-target C-allele intact ([4]; intact mRNA normalized to GAPDH, % of no-oligo control): more than 90%

Oligo 4: PS-oligo (SEQ ID NO:9), oligo 3 with four additional 5′-end nucleotides to facilitate folding into a hairpin structure (GAATCAAGTCACCCACTGATTCTC; all phosphorothioate, sugars by position and methylation of C not given here)
reduction in the cleavage of both alleles as compared to parent oligo 3 [3]: 23% | enhancement in allele discrimination versus parent oligo 3 [3]: no enhancement in allele discrimination

Oligo 5: PS-oligo (SEQ ID NO:10), oligo 3 with six additional 5′-end nucleotides to facilitate folding into a hairpin structure (GAGAATCAAGTCACCCACTGATTCTC; all phosphorothioate, sugars by position and methylation of C not given here)
reduction in the cleavage of both alleles as compared to parent oligo 3 [3]: 36% | enhancement in allele discrimination versus parent oligo 3 [3]: no enhancement in allele discrimination

Oligo 6: Phosphorothioate oligodeoxyribonucleotide 15-mer (SEQ ID NO:11) targeting the site of different allelic structures around nucleotide 1656 of RPA70 mRNA (dC*dA*dA*dG*dT*dC*dA*dC*dC*dC*dA*dC*dT*dG*dA)
allele discrimination compared with the other oligos ([2]; HeLa versus Calu-1 extracts, all three oligo concentrations (100, 300, 600 nM)): better allele discrimination than the SNP-targeting oligos 1 and 2
